These results are taken from US5693608A, “Method of administering a biologically active substance” (Bechgaard International Research and Development A/S, priority 1990, dated 1997).

“Also recorded” adds a separate entry of the source.

In series [1] the test system is rabbit nasal cavity. The series can be described thus: Acute toxicological study, rabbit nasal cavity 10 minutes after intranasal application. The format is in vivo. The conditions noted are these: for Microscopic Observations (Left Cavity): Table 8, individual rabbit. The procedure:
This study was conducted in order to observe acute changes in the rabbit nasal cavity after a single dose of vehicle in each nasal cavity.
16 rabbits were randomized into 4 groups of 4 rabbits each. 3 groups received a single intranasal application of one of the test vehicles, 50 μl into each nasal cavity. Each rabbit received only one test compound. One group served as a control receiving the same volume of isotonic sodium chloride saline. 10 minutes after application the rabbits were sacrificed and bled. The right nasal cavity was then opened and evaluated macroscopically. The evaluator was blind as to the dosing scheme. The left nasal cavity was dissected and fixed in neutral buffered formalin for histological evaluation.

The nature of series [2]: Plasma clonazepam after intranasal administration in vehicle B (Example 2). The format is in vivo, New Zealand White rabbits. On the procedure:
50 μl of his preparation was administered into each nasal cavity of male New Zealand White rabbits, held in a supine position during and 1 minute after the application. An Eppendorph pipette was used for the application.

Series [3] in a line: Volume of aqueous solution needed to dissolve clinically relevant dose. The format is physicochemical.
For series [4], the system named is rabbits. As to the kind of experiment: Pharmacodynamic response, enhanced by GF (Example 3). The conditions noted are these: intranasal 0.25 mg clonazepam in 100 μl.
Procedure: The pharmacodynamic response was tested in New Zealand White rabbits after application of 50 μl of 2.5 mg clonazepam/ml vehicle into each nostril while they were in sitting position. […] Clonazepam was dissolved by ultrasonification.
For series [5] the following is noted: intranasal, adults; cited from earlier work.
Series [6] deals with children. The conditions noted are these: intranasal, 45 children; cited from earlier work.
For series [7] the following is noted: nasal gel, rats; cited from earlier work.
Series [8] deals with blood glucose level. As to the kind of experiment: Blood glucose after intranasal glucagon in hypoglycaemic rabbits (Example 5). The format is in vivo, New Zealand White rabbits. The procedure: 4 mg human glucagon in 100 μl phosphate buffer (pH 4) containing 5% GF was applied into both nostrils (50 μl into each) of 5 sitting hypoglycaemic New Zealand White rabbits, weighing about 3 kg. The formulation was prepared by dissolving glucagon in a 7 mM phosphate buffer (pH 2.5), adjusting the pH to 4.0 with 0.1N sodium hydroxide and finally 5% glycofurolum 75 was added. The rabbits were made hypoglycaemic by subcutaneous injection of […] insulin one hour prior to the experiment. Blood samples were continuously withdrawn from the marginal ear vein for blood glucose determination.

In series [9] the test system is blood glucose level. The series can be described thus: Blood glucose after intranasal insulin (Example 4). The format is in vivo, New Zealand White rabbits. The conditions noted are these: rabbits. The procedure: 0.33 mg zinc-free (monomeric) human insulin in 50 μl 12.5 mM phosphate buffer (pH 7.4) containing 5% glycofurol 75 was applied into one nostril of 5 sitting New Zealand White rabbits, weighing about 3 kg. Blood samples of 50 μl were withdrawn from the marginal ear vein after 0, 15, 30, 60 and 120 minutes, and blood glucose level was determined.

With `CC(O)CO` (stereo not shown) [Propylene glycol (PG), propylene glycol], the “Microscopic Observations (Left Cavity)” value was “Edema and congestion” in series [1] (Level 1); “Congestion” in series [1] (Level 2); “Lymphoid aggregates; also recorded: Dilatation of venules” in series [1] (Level 3); “Area of chronic inflammation” in [1] (Level 4). The “Microscopic Results (Left side)” value in [1] (Table 9 summary, 10 minutes after application, per animal) was “Focal haemorrhage”.

With `O=C1CN=C(c2ccccc2Cl)c2cc([N+](=O)[O-])ccc2N1` [clonazepam], the “plasma concentration versus i.v. injection (in words)” value in series [2] (0.5 mg, at about 2 minutes) is listed as “about the same or even higher, at about 2 minutes, than for an i.v. injection”. Further, in [2] (FIG. 1), the “plasma concentration after 2 1/2 minutes, % of i.v. (CpL(21/2 min))” value is on record as “about 100%”. In addition, the Tmax in series [2] (rabbit, plasma, 0.5 mg, FIG. 1, read-out: peak clonazepam plasma concentration (tmax)) is 2 to 3 min. The “volume of aqueous solution to dissolve clinically relevant dose” value in series [3] was above 10 mL. Moreover, the “time to pharmacodynamic response” value in series [4] is given as “less than 2 minutes”.

In the case of `CN1C(=O)CN=C(c2ccccc2)c2cc(Cl)ccc21` [diazepam], in [5], the “peak concentration with reference to i.v. administration” value was “about 27%”.

Regarding `O=C1Nc2ccc(Cl)cc2C(c2ccccc2Cl)=NC1O` (stereo not shown) [lorazepam], in [5], the “time to peak concentration” value is 2.3 h.

Regarding `Cc1ncc2n1-c1ccc(Cl)cc1C(c1ccccc1F)=NC2` [midazolam], the “adverse reaction (in words)” value in series [6] was “coughing and sneezing with expulsion of part of the dose”.

As to `COC(=O)C1=C(C)NC(C)=C(C(=O)OC)C1c1ccccc1[N+](=O)[O-]` [nifedipine], the “plasma peak concentration compared with intravenous administration” value in [7] was at most 10%.

Turning to “glucagon: human glucagon in phosphate buffer (pH 4) containing 5% GF”, the “pronounced biological response (blood glucose), time after application” value in series [8] is on record as 15-30 minutes.

As for “insulin: zinc-free (monomeric) human insulin in phosphate buffer (pH 7.4) containing 5% glycofurol 75”, the “pronounced biological response (blood glucose), time after application” value in [9] was 15-30 minutes.
